These results are taken from US8765946B2, “Methods of preparing and using quinazoline and quinoline derivatives” (priority 2006, dated 2014).

SMILES strings stand for the structures.

Test [1] deals with colorectal cancer LoVo cells. The test is described as follows: Cell growth inhibition assay (MTS assay), LoVo. The conditions noted are these: Homo sapiens, 48 hours. The format is cell-based.
Test [2] concerns the target T1, A431 cells EGFR-TK phosphorylation stimulated by EGF (Homo sapiens, UniProt P00533).
T1 construct: against A431 cells EGFR-TK; endogenous in cells; host or cells: A431 cells
The test is described as follows: Inhibition of cellular EGFR-TK phosphorylation stimulated by EGF in A431 cells. Type of test: cell-based. Particulars: A-431; concentration of 3 μM; A431 cells, EGF stimulated; one-time measurement at a single concentration (preliminary selection); NA = No activity; read-out: Inhibition Percent (%). How it is done:
Inhibition Experiment of Cellular Epidermal Growth Factor Receptor Tyrosine Kinase
1) A431 cells were cultured in a medium which was prepared by adding 10% FCS into another medium comprising 50% DMEM and 50% F12.
2) A431 cells grown in six-well plates were cultured in a serum-free medium for 24 hours. During the 24 hour period the medium was replenished once after 12 hours.
3) A solution containing a compound to be assessed was added the A431 cells and the cells were cultured for 2 hours, supplemented twice by a medium free of the compound, and then EGF (100 ng/well) was added, and cultured for 5 minutes.
4) A431 cell homogenate was prepared by Laemili buffer which comprised 2% sodium dodecyl sulfonate (SDS), 5% 2-mercaptoethanol, 10% glycerol and 5 mM Tris (pH 6.8).
5) The A431 cell homogenate was heated for 5 minutes at 100° C.
6) Proteins in the A431 cell homogenates were separated by PAGE and transferred onto a nitrocellulose membrane, and an infrared reading was obtained.

Test [3] concerns A431 cells. The test is described as follows: Cell growth inhibition assay (MTS assay), A431. The format is cell-based. The conditions noted are these: Homo sapiens. For orientation: Tetrazolium dyes change colour on reduction, which living cells bring about.
Test [4] concerns the target T2, BT474 cells Her-2 receptor TK phosphorylation stimulated by Her-2 (Homo sapiens, UniProt P04626).
T2 construct: against BT474 cells; endogenous in cells; host or cells: BT474 cells
The test is described as follows: Inhibition of BT474 cells Her-2 receptor TK phosphorylation. Type of test: cell-based. The protocol:
Following literature procedured, inhibitory activity of representative compounds against BT474 cells Her-2 receptor TK phosphorylation stimulated by Her-2 was measured, and partial results are listed in Table 6.

Test [5] has as its system BT474 cells. The test is described as follows: Cell growth inhibition assay (MTS assay), BT474. The conditions noted are these: Homo sapiens, BT-474, 48 h, read-out: Growth inhibition activity (EC50) BT474.
Description: (§1) Cell Growth Inhibition Assay (MTS Assay)
(§2) A431: human epithelial adenocarcinoma cell strain; LoVo: human colorectal cancer cell strain; BT474: breast cancer; SK-Br-3: breast cancer; SIT solution (SIGMA); RPMI1640 culture solution; phosphoric acid buffer; Dimethyl Sulphoxide (DMSO); MTS solution (Promega), 96 well cell culture plate, representative anti-cancer compounds.
(§3) The cells were cultured overnight under the condition of 5% CO2 and 37° C. The next day, representative anti-cancer compounds (between 3 and 10 mM) were dissolved by dimethyl sulphoxide (DMSO) as a mother solution. Adriamycin was used as positive control, DMSO was used as negative control. According to experimental design, the mother solution was diluted and added to the 96 well cell culture plate, cultured for 48 hours under the condition of 5% CO2 and 37° C. Subsequently, 20 μL of MTS solution was added to each well of the 96 well cell culture plate and cultured for another 2 to 4 hours under the condition of 5% CO2 and 37° C. Absorbance was read at 490 nm wavelength, and converted into cell survival rate.
(§4) For each concentration, there two measurements were taken and the average was obtained.
The next test concerns SK-Br-3 cells. The test is described as follows: Cell growth inhibition assay (MTS assay), SK-Br-3. The conditions noted are these: Homo sapiens, SK-BR-3, 48 h, read-out: Growth inhibition activity (EC50) SK-Br-3.
In test [6] the test system is BT474 cells. The test is described as follows: BT-474 cell growth inhibition assay (SRB assay). The conditions noted are these: Homo sapiens, concentration of 3 μM, 72 h, read-out: Inhibition Percent (%). The format is cell-based. How it is done:
BT-474 Cell Growth Inhibition Assay (SRB Assay)
BT-474 human breast cancer cell lines were kindly provided by Dr. Changnian Liu, Pharmaron Beijing Co., Ltd.
BT-474 cells were cultured in 37° C., 5% CO2, saturated humidity until logarithmic phase. Discarded culture medium, washed cells once by PBS. Added 1 ml Trypsin/EDTA solution, stood at 37° C. for 5 min, allowed the cells to detach. Added culture medium, adjusted the cells density to 1×10^5 cells/ml.
Day 0, added 100 μl/well cells suspension to 96-well cell culture plates. Incubated overnight to let the cells attach completely.
Day 1, compounds (2 mM in DMSO as stock solution) was diluted to 20 μM in EMEM. Then a fourfold serial dilution was made. These diluted compounds were made as 10× reaction solutions, and the concentration of DMSO was kept at 1%.
Added 80 μl culture medium and 20 μl 10× compound reaction solution to the testing wells, or vehicle control to the control wells. Co-incubated cells with compounds for another 72 h.
Day 3, fixed cellular protein by the addition of 100 μl/well of 10% TCA (diluting from 50% TCA) at 4° C. for 1 h. Rinsed TCA using plate washer, and washed five times using distilled water. Removed the residual wash solution with a piece of absorbent paper. Added 100 μl/well 0.4% SRB solution, allowed a 15-30 min staining period. Removed the SRB, and washed the culture plates five times using 1% acetic acid. Removed the residual wash solution with a piece of absorbent paper. Air-dried the culture plates, dissolved the protein-bound dye with 100 μl/well of 10 mM Tris base solution. Shook the plates until the dye was dissolved completely.
On the technique in general: In SRB staining, fixed cells bind dye roughly in proportion to their protein.

In test [7] the test system is A431 cells. The test is described as follows: A431 cell growth inhibition assay (MTT assay). Particulars: Homo sapiens; for EC50: A-431, 72 hours (Table 11); for inhibition at 3 µM: A-431, concentration of 3 μM, 72 hours, read-out: Inhibition Percent (%). Type of test: cell-based. The procedure, abridged:
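A431 epidermoid carcinoma cells in DMEM/F12 (1:1) with 10% FBS were seeded at 2.5×10^4 cells/mL, attached overnight, then exposed to compound (final 10 μM to 1.52 nM) for 72 h at 37° C, 5% CO2. Viability was read by MTT (0.5 mg/mL, 4 h), formazan dissolved in DMSO, absorbance 490 nm.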

The mark [8] stands for this setting: A-431, A431 cells, MTS, 48 hours, read-out: Growth inhibition activity EC50.

T1 sequence (P00533 25-1210): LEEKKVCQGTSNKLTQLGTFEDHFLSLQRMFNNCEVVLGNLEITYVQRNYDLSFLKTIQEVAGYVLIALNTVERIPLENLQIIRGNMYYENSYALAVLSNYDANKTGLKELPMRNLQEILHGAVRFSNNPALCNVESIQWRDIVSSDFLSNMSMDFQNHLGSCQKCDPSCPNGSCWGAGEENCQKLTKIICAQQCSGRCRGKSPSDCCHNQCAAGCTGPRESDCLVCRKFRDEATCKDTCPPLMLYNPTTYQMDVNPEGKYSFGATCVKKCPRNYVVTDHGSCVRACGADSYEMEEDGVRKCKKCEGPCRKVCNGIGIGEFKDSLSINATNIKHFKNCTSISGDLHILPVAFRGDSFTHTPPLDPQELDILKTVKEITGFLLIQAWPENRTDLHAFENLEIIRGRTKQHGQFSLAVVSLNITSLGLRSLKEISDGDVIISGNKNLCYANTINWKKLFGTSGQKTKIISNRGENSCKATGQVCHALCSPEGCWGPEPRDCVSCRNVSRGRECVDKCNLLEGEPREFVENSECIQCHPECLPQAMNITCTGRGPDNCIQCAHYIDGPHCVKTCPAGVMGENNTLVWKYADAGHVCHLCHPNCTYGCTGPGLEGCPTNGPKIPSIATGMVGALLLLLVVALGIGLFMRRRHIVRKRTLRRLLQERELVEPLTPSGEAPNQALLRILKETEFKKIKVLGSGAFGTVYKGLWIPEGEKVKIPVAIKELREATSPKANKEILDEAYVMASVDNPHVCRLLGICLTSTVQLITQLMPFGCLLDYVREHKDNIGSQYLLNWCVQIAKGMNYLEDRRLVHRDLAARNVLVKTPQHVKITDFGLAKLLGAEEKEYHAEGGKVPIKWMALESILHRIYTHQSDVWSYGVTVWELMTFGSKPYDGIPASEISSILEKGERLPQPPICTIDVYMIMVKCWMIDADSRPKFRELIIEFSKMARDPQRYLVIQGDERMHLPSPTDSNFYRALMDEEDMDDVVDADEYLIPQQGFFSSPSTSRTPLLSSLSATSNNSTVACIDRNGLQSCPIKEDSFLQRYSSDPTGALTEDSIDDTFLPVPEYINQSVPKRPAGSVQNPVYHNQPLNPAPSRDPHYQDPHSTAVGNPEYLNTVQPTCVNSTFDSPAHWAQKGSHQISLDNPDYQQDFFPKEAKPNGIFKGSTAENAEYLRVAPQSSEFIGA
T2 sequence (P04626 23-1255): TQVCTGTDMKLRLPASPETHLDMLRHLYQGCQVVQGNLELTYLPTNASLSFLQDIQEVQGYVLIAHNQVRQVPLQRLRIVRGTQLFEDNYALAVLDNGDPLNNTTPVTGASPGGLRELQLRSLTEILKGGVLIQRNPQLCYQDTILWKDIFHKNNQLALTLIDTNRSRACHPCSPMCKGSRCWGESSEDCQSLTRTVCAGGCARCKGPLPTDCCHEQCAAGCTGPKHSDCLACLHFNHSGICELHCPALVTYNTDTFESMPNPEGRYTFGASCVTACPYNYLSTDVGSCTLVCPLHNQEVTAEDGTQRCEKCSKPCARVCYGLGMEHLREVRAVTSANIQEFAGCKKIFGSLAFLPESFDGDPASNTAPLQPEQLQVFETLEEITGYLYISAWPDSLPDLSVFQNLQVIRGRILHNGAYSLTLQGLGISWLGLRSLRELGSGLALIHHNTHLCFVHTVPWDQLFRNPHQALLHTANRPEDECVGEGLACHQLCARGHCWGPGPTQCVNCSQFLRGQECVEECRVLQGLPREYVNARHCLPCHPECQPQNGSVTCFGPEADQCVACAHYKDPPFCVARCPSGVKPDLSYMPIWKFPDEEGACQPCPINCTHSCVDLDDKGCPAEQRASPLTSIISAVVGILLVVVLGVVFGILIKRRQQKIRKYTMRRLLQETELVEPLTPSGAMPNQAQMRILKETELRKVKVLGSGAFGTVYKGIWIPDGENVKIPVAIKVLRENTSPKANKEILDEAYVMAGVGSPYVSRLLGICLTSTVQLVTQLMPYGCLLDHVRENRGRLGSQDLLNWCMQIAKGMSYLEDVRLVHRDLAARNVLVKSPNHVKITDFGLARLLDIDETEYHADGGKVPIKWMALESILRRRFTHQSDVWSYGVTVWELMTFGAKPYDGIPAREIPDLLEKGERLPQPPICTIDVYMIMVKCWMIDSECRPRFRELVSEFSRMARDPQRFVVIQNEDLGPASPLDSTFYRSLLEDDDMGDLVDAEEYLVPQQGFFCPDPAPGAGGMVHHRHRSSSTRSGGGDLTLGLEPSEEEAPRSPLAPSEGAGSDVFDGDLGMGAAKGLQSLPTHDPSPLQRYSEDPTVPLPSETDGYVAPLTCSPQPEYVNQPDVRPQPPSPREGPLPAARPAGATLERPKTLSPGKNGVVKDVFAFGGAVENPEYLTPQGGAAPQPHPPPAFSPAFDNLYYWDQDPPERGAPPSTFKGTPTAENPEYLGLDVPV
Description for SK-Br-3 cells: as §1, §2, §3, §4

The EC50 is the concentration that produces a half-maximal response. `COc1cccc2c1C(=O)c1c(O)c3c(c(O)c1C2=O)C[C@@](O)(C(=O)CO)C[C@@H]3O[C@H]1C[C@H](N)[C@H](O)[C@H](C)O1` [Adriamycin, reference compound] returned a half-maximal effective concentration (EC50) in test [1] of 1500 nM.

For orientation: inhibition means the share of the control response that was lost under treatment. With `COc1cc2ncnc(Nc3cccc(Br)c3)c2cc1NC(=O)C=C1CCNCC1` [Example 38, N-(4-(3-bromophenylamino)-7-methoxyquinazolin-6-yl)-2-(piperidin-4-ylidene)acetamide], the results for the 50% effective concentration (EC50) (in test [1]; in the test on A431 cells [3] (setting [8])) were 1600 nM and 0.014 µM, respectively. In addition, the inhibition at 3 µM in test [2] is 94%.

As to `C#Cc1cccc(Nc2ncnc3cc(OC)c(NC(=O)C=C4CCNCC4)cc23)c1` [Example 42, N-(4-(3-ethynylphenylamino)-7-methoxyquinazolin-6-yl)-2-(piperidin-4-ylidene)acetamide], the results for the 50% effective concentration (EC50) (in test [1]; with A431 cells [3] (setting [8])) were 3000 nM and 0.12 µM, respectively.

Regarding `COc1cc2ncnc(Nc3ccc(F)c(Cl)c3)c2cc1NC(=O)C=C1CCNCC1` [Example 43, N-(4-(3-chloro-4-fluorophenylamino)-7-methoxyquinazolin-6-yl)-2-(piperidin-4-ylidene)acetamide], the concentration for a half-maximal effect (EC50) in test [4] came to 350 nM; in test [1] it was 1500 nM; with A431 cells [3] (setting [8]) it was 0.11 µM; with BT474 cells [5], 610 nM; in the test with SK-Br-3 cells, 520 nM. Further, the inhibition at 3 µM in test [2] was found to be 91%.

As to `C#Cc1cccc(Nc2ncnc3cc(OC)c(NC(=O)C=C4CCN(C)CC4)cc23)c1` [Example 51, N-(4-(3-ethynylphenylamino)-7-methoxyquinazolin-6-yl)-2-(1-methylpiperidin-4-ylidene)acetamide], the concentration giving a half-maximal response (EC50) in test [1] came to 7600 nM; in the test on A431 cells [3] (setting [8]), 0.12 µM. For the same compound, in test [2], the inhibition at 3 µM came out at 94%.

As to `COc1cc2ncnc(Nc3ccc(F)c(Cl)c3)c2cc1NC(=O)C=C1CCN(C)CC1` [Example 72, N-(4-(3-chloro-4-fluorophenylamino)-7-methoxyquinazolin-6-yl)-2-(1-methylpiperidin-4-ylidene)acetamide], the concentration for a half-maximal effect (EC50) in test [4] worked out at 820 nM; in test [1], 1800 nM; in the test with A431 cells [3] (setting [8]), 0.09 µM; in the test with BT474 cells [5], 1310 nM; in the test with SK-Br-3 cells, 800 nM. In addition, in test [2], the inhibition at 3 µM is 97%.

Regarding `COCCN1CCC(=CC(=O)Nc2cc3c(Nc4ccc(F)c(Cl)c4)ncnc3cc2OC)CC1` [Example 73, N-(4-(3-chloro-4-fluorophenylamino)-7-methoxyquinazolin-6-yl)-2-(1-(2-methoxyethyl)piperidin-4-ylidene)acetamide], the EC50 in test [4] turned out to be 1700 nM; in test [1], 8000 nM; in the test with A431 cells [3] (setting [8]), 0.63 µM; with BT474 cells [5] it was 21500 nM; in the test with SK-Br-3 cells it was 2310 nM. Also, in test [2], the inhibition at 3 µM was 82%.

For `COc1cc2ncnc(Nc3ccc(OCc4cccc(F)c4)c(Cl)c3)c2cc1NC(=O)C=C1CCNCC1` [Example 105, N-(4-(4-(3-fluorobenzyloxy)-3-chlorophenylamino)-7-methoxyquinazolin-6-yl)-2-(piperidin-4-ylidene)acetamide], in test [4], the EC50 is 480 nM. Besides, in test [2], the inhibition at 3 µM came out at 44%.

For `COc1cc2ncnc(Nc3ccc(OCc4ccccn4)c(Cl)c3)c2cc1NC(=O)C=C1CCNCC1` [Example 108, N-(4-(3-chloro-4-(pyridin-2-ylmethoxy)phenylamino)-7-methoxyquinazolin-6-yl)-2-(piperidin-4-ylidene)acetamide], the EC50 in test [4] amounted to 180 nM; in test [1] it was 7000 nM; in the test on A431 cells [3] (setting [8]), 3 µM; in the test with BT474 cells [5], 1570 nM; with SK-Br-3 cells, 530 nM.

Regarding `COCCN1CCC(=CC(=O)Nc2cc3c(Nc4ccc(OCc5ccccn5)c(Cl)c4)ncnc3cc2OC)CC1` [Example 118, N-(4-(3-chloro-4-(pyridin-2-ylmethoxy)phenylamino)-7-methoxyquinazolin-6-yl)-2-(1-(2-methoxyethyl)piperidin-4-ylidene)acetamide], the inhibition at 3 µM in test [2] amounted to 41%. Also, the concentration giving a half-maximal response (EC50) with A431 cells [3] (setting [8]) amounted to 1.9 µM.

Consider `N#Cc1cnc2ccc(N)cc2c1Nc1cccc(Br)c1` [Example 134, 6-amino-4-(3-bromophenylamino)quinoline-3-carbonitrile], for which the inhibition at 3 µM in test [2] was determined as 59%. Further, the half-maximal effective concentration (EC50) in the test with A431 cells [3] (setting [8]) amounted to 0.9 µM.

For `CCOc1cc2ncc(C#N)c(Nc3ccc(OCc4ccccn4)c(Cl)c3)c2cc1NC(=O)C=C1CCNCC1` [Example 143, N-(4-(3-chloro-4-(pyridin-2-ylmethoxy)phenylamino)-3-cyano-7-ethoxyquinolin-6-yl)-2-(piperidin-4-ylidene)acetamide], the figures for the inhibition at 3 µM (with BT474 cells [6]; in the test with A431 cells [7]; in test [2]) were 55%, 70% and 96%, respectively. Further, the EC50 is 1450 nM in the test with A431 cells [7] and 0.25 µM in the test with A431 cells [3] (setting [8]).

For `CCOc1cc2ncc(C#N)c(Nc3ccc(F)c(Cl)c3)c2cc1NC(=O)C=C1CCNCC1` [Example 150, N-(4-(3-chloro-4-fluorophenylamino)-3-cyano-7-ethoxyquinolin-6-yl)-2-(piperidin-4-ylidene)acetamide], the inhibition at 3 µM was determined as 56% in the test on BT474 cells [6], 95% in the test with A431 cells [7] and 46% in test [2]. The EC50 in test [4] is 260 nM; with A431 cells [7], 170 nM.

On to `CCOc1cc2ncc(C#N)c(Nc3cccc(Br)c3)c2cc1NC(=O)C=C1CCNCC1` [Example 154, N-(4-(3-bromophenylamino)-3-cyano-7-ethoxyquinolin-6-yl)-2-(piperidin-4-ylidene)acetamide], for which the EC50 worked out at 3100 nM in test [1] and 0.11 µM in the test on A431 cells [3] (setting [8]).

With `CS(=O)(=O)CCNCc1ccc(-c2ccc3ncnc(Nc4ccc(OCc5cccc(F)c5)c(Cl)c4)c3c2)o1` [Lapatinib, reference compound], the concentration for a half-maximal effect (EC50) worked out at 1.19 µM in the test on A431 cells [3] (A-431, 48 h, read-out: Growth inhibition activity EC50 (μM)); 120 nM in the test with BT474 cells [5]; 70 nM in the test on SK-Br-3 cells.
